Source: the supplement of paper PMC10307832

Assays:
Assay in all cases: relative viability (nuclei count vs DMSO), 5 days (fraction); higher = more cells survive
Irinotecan + Pemetrexed = compound: CCc1c2c(nc3ccc(OC(=O)N4CCC(N5CCCCC5)CC4)cc13)-c1cc3c(c(=O)n1C2)COC(=O)[C@]3(O)CC [Irinotecan] + Nc1nc2[nH]cc(CCc3ccc(C(=O)N[C@@H](CCC(=O)O)C(=O)O)cc3)c2c(=O)[nH]1 [Pemetrexed] (partner 0.2 µM)
In short: (§1)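 One day after seeding in 1536-well plates, lung cancer cell lines were dosed by pin tool. Dosing was either single-drug or a fixed anchor-drug dose plus five library-drug doses (not always all listed) in √10 steps. After 5 days, nuclei were stained in one fix-and-stain step and counted on 4× images, and relative viability is the nuclei count of treated wells over that of vehicle wells, given as the median of duplicate plates.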

MK-8033 + Bortezomib = compound: Cn1cc(-c2cnc3ccc4ccc(CS(=O)(=O)NCc5ccccn5)cc4c(=O)c3c2)cn1 [MK-8033] + CC(C)C[C@H](NC(=O)[C@H](Cc1ccccc1)NC(=O)c1cnccn1)B(O)O [Bortezomib] (partner 0.002 µM)
In short: as §1

MK-8033 + Lapatinib = compound: Cn1cc(-c2cnc3ccc4ccc(CS(=O)(=O)NCc5ccccn5)cc4c(=O)c3c2)cn1 [MK-8033] + CS(=O)(=O)CCNCc1ccc(-c2ccc3ncnc(Nc4ccc(OCc5cccc(F)c5)c(Cl)c4)c3c2)o1 [Lapatinib] (partner 2 µM)
In short: as §1

MK-8033 + Tozasertib = compound: Cn1cc(-c2cnc3ccc4ccc(CS(=O)(=O)NCc5ccccn5)cc4c(=O)c3c2)cn1 [MK-8033] + Cc1cc(Nc2cc(N3CCN(C)CC3)nc(Sc3ccc(NC(=O)C4CC4)cc3)n2)n[nH]1 [Tozasertib] (partner 0.1 µM)
In short: as §1

LXF-289
relative viability (Irinotecan + Pemetrexed; first compound 0.6325 µM): 0.733
relative viability (Irinotecan + Pemetrexed; first compound 2 µM): 0.854
relative viability (Irinotecan + Pemetrexed; first compound 6.325 µM): 0.54
relative viability (Irinotecan + Pemetrexed; first compound 20 µM): 0.212
relative viability (MK-8033 + Bortezomib; first compound 0.02 µM): 0.989
relative viability (MK-8033 + Bortezomib; first compound 0.06325 µM): 0.964
relative viability (MK-8033 + Bortezomib; first compound 0.2 µM): 0.985
relative viability (MK-8033 + Bortezomib; first compound 0.6325 µM): 0.999
relative viability (MK-8033 + Bortezomib; first compound 2 µM): 0.978
relative viability (MK-8033 + Lapatinib; first compound 0.02 µM): 0.902
relative viability (MK-8033 + Lapatinib; first compound 0.06325 µM): 0.907
relative viability (MK-8033 + Lapatinib; first compound 0.2 µM): 0.874
relative viability (MK-8033 + Lapatinib; first compound 0.6325 µM): 0.917
relative viability (MK-8033 + Lapatinib; first compound 2 µM): 0.875
relative viability (MK-8033 + Tozasertib; first compound 0.02 µM): 0.187
relative viability (MK-8033 + Tozasertib; first compound 0.06325 µM): 0.148
relative viability (MK-8033 + Tozasertib; first compound 0.2 µM): 0.157
relative viability (MK-8033 + Tozasertib; first compound 0.6325 µM): 0.203
relative viability (MK-8033 + Tozasertib; first compound 2 µM): 0.179

LC-2-ad
relative viability (Irinotecan + Pemetrexed; first compound 0.6325 µM): 0.325
relative viability (Irinotecan + Pemetrexed; first compound 2 µM): 0.271
relative viability (Irinotecan + Pemetrexed; first compound 6.325 µM): 0.259
relative viability (Irinotecan + Pemetrexed; first compound 20 µM): 0.151
relative viability (MK-8033 + Bortezomib; first compound 0.02 µM): 1.12
relative viability (MK-8033 + Bortezomib; first compound 0.06325 µM): 0.996
relative viability (MK-8033 + Bortezomib; first compound 0.2 µM): 0.885
relative viability (MK-8033 + Bortezomib; first compound 0.6325 µM): 0.996
relative viability (MK-8033 + Bortezomib; first compound 2 µM): 0.933
relative viability (MK-8033 + Lapatinib; first compound 0.02 µM): 1.09
relative viability (MK-8033 + Lapatinib; first compound 0.06325 µM): 0.915
relative viability (MK-8033 + Lapatinib; first compound 0.2 µM): 0.877
relative viability (MK-8033 + Lapatinib; first compound 0.6325 µM): 1.11
relative viability (MK-8033 + Lapatinib; first compound 2 µM): 0.806
relative viability (MK-8033 + Tozasertib; first compound 0.02 µM): 0.441
relative viability (MK-8033 + Tozasertib; first compound 0.06325 µM): 0.385
relative viability (MK-8033 + Tozasertib; first compound 0.6325 µM): 0.512
relative viability (MK-8033 + Tozasertib; first compound 2 µM): 0.409

NCI-H2085
relative viability (Irinotecan + Pemetrexed; first compound 0.6325 µM): 0.661
relative viability (Irinotecan + Pemetrexed; first compound 2 µM): 0.915
relative viability (Irinotecan + Pemetrexed; first compound 6.325 µM): 0.826
relative viability (Irinotecan + Pemetrexed; first compound 20 µM): 0.468
relative viability (MK-8033 + Bortezomib; first compound 0.02 µM): 0.956
relative viability (MK-8033 + Bortezomib; first compound 0.06325 µM): 0.941
relative viability (MK-8033 + Bortezomib; first compound 0.2 µM): 0.98
relative viability (MK-8033 + Bortezomib; first compound 0.6325 µM): 1.08
relative viability (MK-8033 + Bortezomib; first compound 2 µM): 0.963
relative viability (MK-8033 + Lapatinib; first compound 0.02 µM): 0.746
relative viability (MK-8033 + Lapatinib; first compound 0.06325 µM): 0.646
relative viability (MK-8033 + Lapatinib; first compound 0.2 µM): 0.695
relative viability (MK-8033 + Lapatinib; first compound 0.6325 µM): 0.743
relative viability (MK-8033 + Lapatinib; first compound 2 µM): 0.806
relative viability (MK-8033 + Tozasertib; first compound 0.02 µM): 0.812
relative viability (MK-8033 + Tozasertib; first compound 0.06325 µM): 0.708
relative viability (MK-8033 + Tozasertib; first compound 0.2 µM): 0.73
relative viability (MK-8033 + Tozasertib; first compound 0.6325 µM): 0.841
relative viability (MK-8033 + Tozasertib; first compound 2 µM): 0.593
